Measured values as given in ChEMBL document CHEMBL1154844, “An antimycobacterial cyclodepsipeptide from the entomopathogenic fungus Ophiocordyceps communis BCC 16475” (J Nat Prod, 2010).
In brackets after ≈: the same amount, converted by molar mass. Activity calls are given as the source filed them. The calls are words filed in the database; no cut-off is given here.

Columns and labels:
MCF7 [1] = assay: Cytotoxicity against human MCF7 cells by resazurin microplate assay; type: functional, cell-based
MCF7 [2] = assay: Cytotoxicity against human MCF7 cells at 88 uM by resazurin microplate assay; type: functional, cell-based
Vero [3] = assay: Cytotoxicity against african green monkey Vero cells at 178 uM by Green fluorescent protein microplate assay; type: cell-based; settings: chlorocebus sabaeus
KB [4] = assay: Cytotoxicity against human KB cells at 178 uM by resazurin microplate assay; type: functional, cell-based
NCI-H187 [5] = assay: Cytotoxicity against human NCI-H187 cells at 178 uM by resazurin microplate assay; type: functional, cell-based
[6] = system: Monilinia mali (Monilinia mali); assay: Antifungal activity against Monilinia mali
Bipolaris oryzae = assay: Antifungal activity against Cochliobolus miyabeanus; type: functional
Venturia inaequalis = assay: Antifungal activity against Venturia inaequalis; type: functional
Plasmodium falciparum = assay: Antimalarial activity against Plasmodium falciparum K1; type: functional, organism-based
NCI-H187 [7] = assay: Cytotoxicity against human NCI-H187 cells at 88 uM by resazurin microplate assay; type: functional, cell-based
Candida albicans = assay: Antifungal activity against Candida albicans; type: functional, organism-based
Pyricularia grisea = assay: Antifungal activity against Magnaporthe grisea; type: functional, organism-based
Vero [8] = assay: Cytotoxicity against african green monkey Vero cells at 88 uM by Green fluorescent protein microplate assay; type: cell-based; settings: chlorocebus sabaeus
[9] = system: Mycobacterium tuberculosis; assay: Antibacterial activity against Mycobacterium tuberculosis H37Ra by Green fluorescent protein microplate assay; type: functional
KB [10] = assay: Cytotoxicity against human KB cells by resazurin microplate assay; type: functional, cell-based

Structure (SMILES) | Activity (Vero [3]) | Activity (KB [4]) | Activity (NCI-H187 [5]) | MIC [6] | MIC (Bipolaris oryzae) | MIC (Venturia inaequalis) | MIC (Plasmodium falciparum) | Activity (MCF7 [2]) | Activity (NCI-H187 [7]) | MIC (Candida albicans) | MIC (Pyricularia grisea) | Activity (Vero [8]) | IC50 (KB [10]) | other results
CCC[C@H](O)C[C@@H]1Cc2cc(OC)cc(O)c2C(=O)O1 | Not Active | inactive | inactive | – | – | – | – | – | – | – | – | – | – | IC50 (MCF7 [1]): 62 µM; IC50 (MCF7 [2]): 62 µM
CCCCCCCCCC[C@@H](C)[C@@H]1CC(=O)N[C@H]([C@@H](C)O)C(=O)N[C@@H](C)C(=O)N[C@H](C)C(=O)N[C@@H](CCC(N)=O)C(=O)N[C@H](Cc2ccc(O)cc2)C(=O)N[C@@H](C(C)C)C(=O)O1 [WA 493 A] | – | – | – | 1 µg/mL (≈ 1.14 µM) | 1 µg/mL (≈ 1.14 µM) | 1 µg/mL (≈ 1.14 µM) | – | – | – | – | – | – | – | –
CCCCCCCCCC1CCCC(=O)N[C@H]([C@@H](C)O)C(=O)N[C@@H](C)C(=O)N[C@@H](C)C(=O)N[C@@H](CCC(N)=O)C(=O)N[C@@H](Cc2ccc(O)cc2)C(=O)N[C@@H](C(C)C)C(=O)O1 (stereo partly specified) [CORDYCOMMUNIN] | – | – | – | – | – | – | inactive | inactive | inactive | inactive | inactive | Not Active | 45 µM | MIC [9]: 15 µM (≈ 12.9 µg/mL)
CCCCCCCCCC[C@@H](C)[C@@H]1CC(=O)N[C@H]([C@@H](C)O)C(=O)N[C@@H](C)C(=O)N[C@H](C)C(=O)N[C@@H](CCC(N)=O)C(=O)N[C@H](Cc2ccc(O)cc2)C(=O)N[C@@H]([C@@H](C)CC)C(=O)O1 | – | – | – | 1 µg/mL (≈ 1.13 µM) | 1 µg/mL (≈ 1.13 µM) | 1 µg/mL (≈ 1.13 µM) | – | – | – | – | – | – | – | –
CCC[C@H](O)C[C@@H]1Cc2cc(OC)cc(OC)c2C(=O)O1 | Not Active | inactive | inactive | – | – | – | inactive | inactive | inactive | inactive | inactive | Not Active | 45 µM | Activity (MCF7 [1]): inactive; Activity [9]: inactive
